System: 521955-158-R2-J5-PDC complex spheroid growth, % test/control
Test: Anticancer human tumor 521955-158-R2-J5-PDC patient-derived pancreatic carcinoma cell line growth inhibition [Asc]
Conditions: for IC50: curve of first compound; for viability, T/C: stronger effect = lower value
Outline: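 Tumor cells were grown as multicellular spheroids with stromal HUVEC and mesenchymal stem cells and treated singly or in combination. Concentrations fell in half-log steps from the clinical Cmax, or from 10 microM where none was known.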

[1] = second compound 0.01 µM, first compound 0.0316 µM
[2] = second compound 0.01 µM, first compound 0.1 µM
[3] = second compound 0.01 µM, first compound 0.316 µM
[4] = second compound 0.01 µM, first compound 1 µM
[5] = second compound 0.0316 µM, first compound 0.0316 µM
[6] = second compound 0.0316 µM, first compound 0.1 µM
[7] = second compound 0.0316 µM, first compound 0.316 µM
[8] = second compound 0.0316 µM, first compound 1 µM
[9] = second compound 0.1 µM, first compound 0.0316 µM
[10] = second compound 0.1 µM, first compound 0.1 µM
[11] = second compound 0.1 µM, first compound 0.316 µM
[12] = second compound 0.1 µM, first compound 1 µM
[13] = second compound 0.316 µM, first compound 0.0316 µM
[14] = second compound 0.316 µM, first compound 0.1 µM
[15] = second compound 0.316 µM, first compound 0.316 µM
[16] = second compound 0.316 µM, first compound 1 µM
[17] = second compound 1 µM, first compound 0.0316 µM
[18] = second compound 1 µM, first compound 0.1 µM
[19] = second compound 1 µM, first compound 0.316 µM
[20] = second compound 1 µM, first compound 1 µM
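Also: spheroids exposed to agents for 7 days before readout.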
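For viability, T/C in this document: 100% = DMSO vehicle control viability.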

Compound	IC50 (second compound 0.01 µM) [nM]	IC50 (second compound 0.0316 µM) [nM]	IC50 (second compound 0.1 µM) [nM]	IC50 (second compound 0.316 µM) [nM]	IC50 (second compound 1 µM) [nM]	viability, T/C [1] [%]	viability, T/C [2] [%]	viability, T/C [3] [%]	viability, T/C [4] [%]	viability, T/C [5] [%]	viability, T/C [6] [%]	viability, T/C [7] [%]	viability, T/C [8] [%]	viability, T/C [9] [%]	viability, T/C [10] [%]	viability, T/C [11] [%]	viability, T/C [12] [%]	viability, T/C [13] [%]	viability, T/C [14] [%]	viability, T/C [15] [%]	other results
C=CC(=O)N1CCN(c2nc(=O)n(-c3c(C)ccnc3C(C)C)c3nc(-c4c(O)cccc4F)c(F)cc23)C(C)C1 (stereo not given) + CNC(C)C(=O)NC1CN(S(=O)(=O)c2cccc(S(=O)(=O)N3CCC4CCC(C(=O)NC(c5ccccc5)c5ccccc5)N4C(=O)C(NC(=O)C(C)NC)C3)c2)CCC2CCC(C(=O)NC(c3ccccc3)c3ccccc3)N2C1=O	> 10000	> 10000	> 10000	> 10000	> 10000	91.1	105	111	118	108	93.1	103	94.8	91.8	111	105	119	104	100	97.3	viability, T/C (second compound 0.01 µM, first compound 3.16 µM): 119%; viability, T/C (second compound 0.01 µM, first compound 10 µM): 88.2%; viability, T/C (second compound 0.0316 µM, first compound 3.16 µM): 115%; viability, T/C (second compound 0.0316 µM, first compound 10 µM): 96.7%; viability, T/C (second compound 0.1 µM, first compound 3.16 µM): 97.4%; viability, T/C (second compound 0.1 µM, first compound 10 µM): 89.1%; viability, T/C [16]: 98.2%; viability, T/C (second compound 0.316 µM, first compound 3.16 µM): 106%; viability, T/C (second compound 0.316 µM, first compound 10 µM): 95.2%; viability, T/C [17]: 115%; viability, T/C [18]: 98.3%; viability, T/C [19]: 102%; viability, T/C [20]: 109%; viability, T/C (second compound 1 µM, first compound 3.16 µM): 113%; viability, T/C (second compound 1 µM, first compound 10 µM): 88.3%
COc1c(OCCCN2CCOCC2)ccc2c3n(c(=NC(=O)c4cnc(N)nc4)nc12)CCN3 + CNC(C)C(=O)NC1CN(S(=O)(=O)c2cccc(S(=O)(=O)N3CCC4CCC(C(=O)NC(c5ccccc5)c5ccccc5)N4C(=O)C(NC(=O)C(C)NC)C3)c2)CCC2CCC(C(=O)NC(c3ccccc3)c3ccccc3)N2C1=O	8.04	21	9.32	14.9	21.9	38.4	25.5	17.9	11.8	35	30	18	11.5	36.1	27.9	17.1	11.6	35.6	34.8	16.5	viability, T/C (second compound 0.01 µM, first compound 0.00316 µM): 63.6%; viability, T/C (second compound 0.01 µM, first compound 0.01 µM): 42.8%; viability, T/C (second compound 0.0316 µM, first compound 0.00316 µM): 73.1%; viability, T/C (second compound 0.0316 µM, first compound 0.01 µM): 71.1%; viability, T/C (second compound 0.1 µM, first compound 0.00316 µM): 71.3%; viability, T/C (second compound 0.1 µM, first compound 0.01 µM): 43.6%; viability, T/C (second compound 0.316 µM, first compound 0.00316 µM): 91%; viability, T/C (second compound 0.316 µM, first compound 0.01 µM): 52.8%; viability, T/C [16]: 13.1%; viability, T/C (second compound 1 µM, first compound 0.00316 µM): 83.3%; viability, T/C (second compound 1 µM, first compound 0.01 µM): 64.5%; viability, T/C [17]: 42.5%; viability, T/C [18]: 28.6%; viability, T/C [19]: 17.6%; viability, T/C [20]: 12.9%

Reference: PubChem BioAssay AID1963430 (Molecular Pharmacology Branch, DTP, NCI, 2024)
